Experimental data as given in the NIST ThermoML archive (doi:10.1016/j.jct.2016.08.016).
± gives the expanded uncertainty stated by the source.

Conditions: Crystal; visual observation

Row | Compound | Normal melting temperature
1 | CC1=C(NCc2ccccc2)C(=O)c2ccccc2C1=O [2-(benzylamino)-3-methylnaphthalene-1,4-dione] | 91.7 ± 2.6 °C
2 | CC1=C(NCCc2ccccc2)C(=O)c2ccccc2C1=O [3-(phenethylamino)-2-methylnaphthalene-1,4-dione] | 92.6 ± 1.6 °C
